Data from patent US9387209B2, “Histone deacetylases (HDACs) inhibitors” (ANNJI PHARMACEUTICAL CO., LTD., priority 2012, dated 2016).
Like-named read-outs stand apart in the source and are kept apart here.

How the values were obtained:
[1] = molecular target: T1, human histone deacetylases (HDAC) 6 (Homo sapiens, UniProt Q9UBN7); assay: HDAC enzymatic assay, HDAC6; assay type: biochemical; settings: for selective inhibitions on HDAC6: HDAC6 versus other HDACs
T1 sequence (Q9UBN7 1-1215): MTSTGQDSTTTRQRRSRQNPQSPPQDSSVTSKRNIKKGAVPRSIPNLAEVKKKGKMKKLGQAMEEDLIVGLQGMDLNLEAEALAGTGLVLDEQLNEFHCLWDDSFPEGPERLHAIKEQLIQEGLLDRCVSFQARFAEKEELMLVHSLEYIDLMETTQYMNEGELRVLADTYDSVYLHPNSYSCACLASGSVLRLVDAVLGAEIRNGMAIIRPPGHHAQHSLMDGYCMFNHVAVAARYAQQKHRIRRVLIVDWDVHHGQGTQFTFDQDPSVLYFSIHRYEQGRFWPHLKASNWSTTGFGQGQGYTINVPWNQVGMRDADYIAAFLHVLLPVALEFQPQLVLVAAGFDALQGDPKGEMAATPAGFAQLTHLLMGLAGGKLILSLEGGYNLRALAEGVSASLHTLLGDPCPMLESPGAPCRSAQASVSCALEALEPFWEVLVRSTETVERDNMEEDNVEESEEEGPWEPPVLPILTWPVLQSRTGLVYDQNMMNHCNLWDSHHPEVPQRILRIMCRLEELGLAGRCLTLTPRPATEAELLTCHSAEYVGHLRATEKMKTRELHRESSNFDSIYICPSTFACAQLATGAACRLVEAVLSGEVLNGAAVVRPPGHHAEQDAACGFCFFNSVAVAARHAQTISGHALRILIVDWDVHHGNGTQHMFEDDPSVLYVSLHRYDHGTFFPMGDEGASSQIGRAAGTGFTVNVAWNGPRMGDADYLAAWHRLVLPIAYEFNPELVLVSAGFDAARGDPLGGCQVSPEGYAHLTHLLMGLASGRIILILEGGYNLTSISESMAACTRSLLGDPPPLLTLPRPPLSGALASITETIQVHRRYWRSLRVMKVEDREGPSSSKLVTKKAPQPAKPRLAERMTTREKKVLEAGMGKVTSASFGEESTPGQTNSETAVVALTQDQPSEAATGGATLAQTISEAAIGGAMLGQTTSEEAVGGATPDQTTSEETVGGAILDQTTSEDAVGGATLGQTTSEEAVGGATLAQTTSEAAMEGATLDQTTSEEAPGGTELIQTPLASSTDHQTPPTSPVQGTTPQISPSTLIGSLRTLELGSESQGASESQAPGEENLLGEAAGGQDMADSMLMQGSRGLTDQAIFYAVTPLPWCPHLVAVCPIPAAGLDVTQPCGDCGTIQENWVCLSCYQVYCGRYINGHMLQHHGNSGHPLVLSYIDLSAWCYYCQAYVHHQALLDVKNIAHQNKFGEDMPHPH

[2] = molecular target: T2, human histone deacetylases (HDAC) 8 (Homo sapiens, UniProt Q9BY41); assay: HDAC enzymatic assay, HDAC8; assay type: biochemical
T2 sequence (Q9BY41 1-377): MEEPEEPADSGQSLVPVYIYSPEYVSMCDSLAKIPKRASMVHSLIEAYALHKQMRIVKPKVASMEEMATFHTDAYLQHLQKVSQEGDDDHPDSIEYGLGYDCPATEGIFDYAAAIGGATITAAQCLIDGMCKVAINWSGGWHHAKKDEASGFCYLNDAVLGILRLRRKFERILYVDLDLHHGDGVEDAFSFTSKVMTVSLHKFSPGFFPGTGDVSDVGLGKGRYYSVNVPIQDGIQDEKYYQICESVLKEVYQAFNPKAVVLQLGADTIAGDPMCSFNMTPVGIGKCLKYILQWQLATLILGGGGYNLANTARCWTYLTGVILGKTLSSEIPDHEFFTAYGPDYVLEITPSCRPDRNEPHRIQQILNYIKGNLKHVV

[3] = molecular target: human histone deacetylases (HDAC) 1 (Homo sapiens, UniProt Q13547); assay: HDAC enzymatic assay, HDAC1; assay type: biochemical; settings: read-out: IC50 HDAC1 (grading)
PC 12 cells [4] = assay: Neurite outgrowth assay, PC 12; assay type: cell-based; settings: Rattus norvegicus
SH-SY5Y cells [5] = assay: Neurite outgrowth assay, SH-SY5Y; assay type: cell-based; settings: Homo sapiens
PC 12 cells [6] = assay: Neurite synaptic uptake activity (FM1-43), PC 12; assay type: cell-based; settings: Rattus norvegicus, NGF positive control taken as 100%, read-out: uptake of dye FM1-43 EC50
Description: (§1) Neurite Synaptic Uptake Activity Analysis.
(§2) The effects of compounds on the neuronal synapse uptake of fluorescent indicator FM1-43 were assayed. The uptake of the dye indicated the synaptic function of the neurites. PC 12 and SH-SY5Y cells were used. Cells in experimental groups were treated with a test compound and FM1-43; Cells in positive control were treated with NGF and FM1-43; Cells in negative control were treated with a vehicle and FM1-43. The fluorescence in the positive control were taken as 100%.

SH-SY5Y cells [7] = assay: Neurite synaptic uptake activity (FM1-43), SH-SY5Y; assay type: cell-based; settings: Homo sapiens, NGF positive control taken as 100%, read-out: uptake of dye FM1-43 EC50
Description: as §1, §2

[8] = MTT or SRB assay for cytotoxicity, A549; assay type: cell-based; settings: human, A549 cells, read-out: cytotoxicity IC50 (grading) A549
Description: (§3) MTT or SRB Assays for Cytotoxicities of HDAC Inhibitors.
(§4) These compounds were assayed for cytotoxicities to the following cells: A549 cells (adenocarcinomic human alveolar basal epithelial cells), HCT-116 cells (human colon carcinoma cells). PANC-1 cells (human pancreatic carcinoma, epithelial-like cell line) and HepG2 cells (human liver hepatocellular carcinoma cell line), neuronal cells PC12 (rat pheochromocytoma cell line) and SH-SY5Y (human neuroblastoma cell line). MTT (3-[4,5-dimethylthiazol-2-yl]2,5-diphenyl-tetrazolium bromide) reduction was collaborated by using trypan blue exclusion assay.

[9] = MTT or SRB assay for cytotoxicity, HCT116; assay type: cell-based; settings: human, HCT-116 cells, read-out: cytotoxicity IC50 (grading) HCT116
Description: as §3, §4

[10] = MTT or SRB assay for cytotoxicity, PANC1; assay type: cell-based; settings: human, PANC-1 cells, read-out: cytotoxicity IC50 (grading) PANC1
Description: as §3, §4

[11] = MTT or SRB assay for cytotoxicity, HepG2; assay type: cell-based; settings: human, HepG2 cells, read-out: cytotoxicity IC50 (grading) HepG2
Description: as §3, §4

[12] = HDAC6, read-out: IC50 HDAC6 (grading)
[13] = HDAC8, read-out: IC50 HDAC8 (grading)

Chain of human histone deacetylases (HDAC) 1 (Q13547 whole entry): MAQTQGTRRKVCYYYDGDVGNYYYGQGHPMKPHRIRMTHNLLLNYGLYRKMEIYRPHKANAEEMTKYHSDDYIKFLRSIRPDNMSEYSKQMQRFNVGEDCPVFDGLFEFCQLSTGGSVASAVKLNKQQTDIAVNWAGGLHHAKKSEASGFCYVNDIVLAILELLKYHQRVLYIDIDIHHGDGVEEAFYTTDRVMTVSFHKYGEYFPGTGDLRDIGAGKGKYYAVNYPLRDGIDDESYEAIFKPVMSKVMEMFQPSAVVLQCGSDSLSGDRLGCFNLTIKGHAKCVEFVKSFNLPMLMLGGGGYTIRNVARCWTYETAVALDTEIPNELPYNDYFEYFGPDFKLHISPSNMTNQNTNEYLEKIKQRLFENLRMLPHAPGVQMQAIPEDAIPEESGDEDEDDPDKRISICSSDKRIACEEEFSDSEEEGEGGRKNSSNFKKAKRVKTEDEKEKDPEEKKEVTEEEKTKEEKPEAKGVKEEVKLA

| IC50 [3] [µM] | IC50 [1, 12] [µM] | selective inhibitions on HDAC6 [1] | IC50 [2, 13] [µM] | EC50 (SH-SY5Y cells [5]) [µM] | EC50 (PC 12 cells [6]) [µM] | EC50 (SH-SY5Y cells [7]) [µM] | melting point | SMILES | IC50 [1] [µM] | IC50 [2] [µM] | EC50 (PC 12 cells [4]) [µM] | IC50 [8] [µM] | IC50 [9] [µM] | IC50 [10] [µM] | IC50 [11] [µM] |
| --- | --- | --- | --- | --- | --- | --- | --- | --- | --- | --- | --- | --- | --- | --- | --- |
| – | – | – | – | – | – | – | – | Cc1nc2cc(/C=C/C(=O)NO)ccc2c(=O)n1-c1ccccc1 [Compound 1c, (2E)-3-(3,4-dihydro-2-methyl-4-oxo-3-phenylquinazolin-7-yl)-N-hydroxyacrylamide] | < 0.1 | 1 to 10 | – | – | – | – | – |
| 1 to 10 | < 0.1 | selective inhibitions on HDAC6 | 1 to 10 | 9.97 ± 1.17 | 6.95 ± 0.82 | 9.97 ± 1.17 | 189 to 191 °C | CCc1nc2cc(/C=C/C(=O)NO)ccc2c(=O)n1CCCc1ccccc1 [Compound 1j, (2E)-3-(2-ethyl-3,4-dihydro-4-oxo-3-(3-phenylpropyl)quinazolin-7-yl)-N-hydroxyacrylamide] | – | – | 6.95 ± 0.82 | – | – | – | – |
| 0.1 to 1 | < 0.1 | – | – | > 30 | 0.76 ± 0.69 | > 30 | 204 to 206 °C (dec.) | O=C(/C=C/c1ccc2c(=O)n(CCc3ccccc3)c(C3CC3)nc2c1)NO [Compound 1k, (2E)-3-(2-cyclopropyl-3,4-dihydro-4-oxo-3-phenethylquinazolin-7-yl)-N-hydroxyacrylamide] | – | – | 0.76 ± 0.69 | – | – | – | – |
| 0.1 to 1 | < 0.1 | – | – | 6.74 ± 0.78 | 5.28 ± 0.51 | 6.74 ± 0.78 | 173 to 174 °C (dec.) | CC(C)c1nc2cc(/C=C/C(=O)NO)ccc2c(=O)n1CCc1ccccc1 [Compound 1l, (2E)-3-(3,4-dihydro-2-isopropyl-4-oxo-3-phenethylquinazolin-7-yl)-N-hydroxyacrylamide] | – | – | 5.28 ± 0.51 | – | – | – | – |
| 1 to 10 | < 0.1 | – | 0.1 to 1 | 20.6 ± 2.51 | 20.6 ± 3.12 | 20.6 ± 2.51 | 215 to 217 °C | CCc1nc2cc(/C=C/C(=O)NO)ccc2c(=O)n1CCc1ccc(OC)cc1 [Compound 1m] | – | – | 20.6 ± 3.12 | 1 to 10 | 1 to 10 | 1 to 10 | 1 to 10 |
| 1 to 10 | < 0.1 | – | 0.1 to 1 | 22.2 ± 2.01 | 13.9 ± 0.94 | 22.2 ± 2.01 | 195 to 197 °C (dec.) | CCc1nc2cc(/C=C/C(=O)NO)ccc2c(=O)n1CCc1ccc(F)cc1 [Compound 1n, (2E)-3-(3-(4-fluorophenethyl)-2-ethyl-3,4-dihydro-4-oxoquinazolin-7-yl)-N-hydroxyacrylamide] | – | – | 13.9 ± 0.94 | 1 to 10 | 1 to 10 | 1 to 10 | 1 to 10 |
| 1 to 10 | < 0.1 | selective inhibitions on HDAC6 | 1 to 10 | – | 1.66 ± 0.76 | – | – | CCc1nc2cc(/C=C/C(=O)NO)c(F)cc2c(=O)n1CCc1ccccc1 [Compound 2a, (2E)-3-(2-ethyl-6-fluoro-3,4-dihydro-4-oxo-3-phenethylquinazolin-7-yl)-N-hydroxyacrylamide] | – | – | – | 1 to 10 | 1 to 10 | 1 to 10 | 1 to 10 |
| 1 to 10 | < 0.1 | selective inhibitions on HDAC6 | 0.1 to 1 | – | 0.78 ± 0.49 | – | 183 to 185 °C (dec.) | CCc1nc2cc(F)c(/C=C/C(=O)NO)cc2c(=O)n1CCc1ccccc1 [Compound 3a, (2E)-3-(2-ethyl-7-fluoro-3,4-dihydro-4-oxo-3-phenethylquinazolin-6-yl)-N-hydroxyacrylamide] | – | – | – | 1 to 10 | ≥ 10 | ≥ 10 | ≥ 10 |
| > 10 | 0.1 to 1 | – | 1 to 10 | 7.63 ± 0.74 | 10.7 ± 1.26 | 7.63 ± 0.74 | – | CCc1nc2cc(Cl)c(/C=C/C(=O)NO)cc2c(=O)n1CCc1ccccc1 [Compound 3b, (2E)-3-(7-chloro-2-ethyl-3,4-dihydro-4-oxo-3-phenethylquinazolin-6-yl)-N-hydroxyacrylamide] | – | – | 10.7 ± 1.26 | 1 to 10 | ≥ 10 | 0.1 to 1 | ≥ 10 |
| 1 to 10 | < 0.1 | selective inhibitions on HDAC6 | < 0.1 | 4.06 ± 0.58 | 2.89 ± 0.45 | 4.06 ± 0.58 | – | CCc1nc2ccc(Cc3ccc(C(=O)NO)cc3)cc2c(=O)n1CCc1ccccc1 [Compound 4a, 4-((2-ethyl-3,4-dihydro-4-oxo-3-phenethylquinazolin-6-yl)methyl)-N-hydroxybenzamide] | – | – | 2.89 ± 0.45 | – | – | – | – |
| – | < 0.1 | selective inhibitions on HDAC6 | – | – | – | – | 181 to 183 °C (dec.) | CCc1nc2cc(Cc3ccc(C(=O)NO)cc3)ccc2c(=O)n1CCc1ccccc1 [Compound 4b, 4-((2-ethyl-3,4-dihydro-4-oxo-3-phenethylquinazolin-7-yl)methyl)-N-hydroxybenzamide] | – | – | – | 1 to 10 | 1 to 10 | 1 to 10 | 0.1 to 1 |
| – | – | – | – | – | – | – | 202 to 204 °C (dec.) | CCc1nc2c(-c3ccc(C(=O)NO)cc3)cccc2c(=O)n1CCc1ccccc1 [Compound 5a, 4-(2-ethyl-3,4-dihydro-4-oxo-3-phenethylquinazolin-8-yl)-N-hydroxybenzamide] | – | – | – | ≥ 10 | ≥ 10 | 1 to 10 | ≥ 10 |

| SMILES | IC50 [3] [µM] | IC50 [1, 12] [µM] | selective inhibitions on HDAC6 [1] | IC50 [2, 13] [µM] | EC50 (SH-SY5Y cells [5]) [µM] | EC50 (PC 12 cells [6]) [µM] | EC50 (SH-SY5Y cells [7]) [µM] | melting point | IC50 [1] [µM] | IC50 [2] [µM] | EC50 (PC 12 cells [4]) [µM] | IC50 [8] [µM] | IC50 [9] [µM] | IC50 [10] [µM] | IC50 [11] [µM] |
| --- | --- | --- | --- | --- | --- | --- | --- | --- | --- | --- | --- | --- | --- | --- | --- |
| CCc1nc2c(Cc3ccc(C(=O)NO)cc3)cccc2c(=O)n1CCc1ccccc1 [Compound 4c, 4-((2-ethyl-3,4-dihydro-4-oxo-3-phenethylquinazolin-8-yl)methyl)-N-hydroxybenzamide] | – | – | – | – | – | 5.34 ± 0.85 | – | – | 0.1 to 1 | 0.1 to 1 | – | ≥ 10 | ≥ 10 | ≥ 10 | 1 to 10 |
